Experimental findings from ChEMBL document CHEMBL3763096, “8-Halo-substituted naphtho[2,3-b]thiophene-4,9-diones as redox-active inhibitors of keratinocyte hyperproliferation with reduced membrane-damaging properties” (Eur J Med Chem, 2016) are described below.

The structures appear in SMILES notation. Active and inactive are the calls of the source. The calls are words filed in the database; no cut-off is given here. Bounds are passed on as bounds.

Data set [1] relates to HaCaT. The experiment in a line: Antihyperproliferative activity against human HaCaT cells after 48 hrs by phase contrast microscopic analysis. Type of data set: functional, cell-based.
In data set [2] the test system is HaCaT. The experiment in a line: Cytotoxicity against human HaCaT cells assessed as LDH level at 2 uM incubated for 4 hrs. Type of data set: cell-based.
Data set [3] has as its target T1, NADPH--cytochrome P450 reductase (Homo sapiens, UniProt P16435).
T1 sequence (P16435 whole entry): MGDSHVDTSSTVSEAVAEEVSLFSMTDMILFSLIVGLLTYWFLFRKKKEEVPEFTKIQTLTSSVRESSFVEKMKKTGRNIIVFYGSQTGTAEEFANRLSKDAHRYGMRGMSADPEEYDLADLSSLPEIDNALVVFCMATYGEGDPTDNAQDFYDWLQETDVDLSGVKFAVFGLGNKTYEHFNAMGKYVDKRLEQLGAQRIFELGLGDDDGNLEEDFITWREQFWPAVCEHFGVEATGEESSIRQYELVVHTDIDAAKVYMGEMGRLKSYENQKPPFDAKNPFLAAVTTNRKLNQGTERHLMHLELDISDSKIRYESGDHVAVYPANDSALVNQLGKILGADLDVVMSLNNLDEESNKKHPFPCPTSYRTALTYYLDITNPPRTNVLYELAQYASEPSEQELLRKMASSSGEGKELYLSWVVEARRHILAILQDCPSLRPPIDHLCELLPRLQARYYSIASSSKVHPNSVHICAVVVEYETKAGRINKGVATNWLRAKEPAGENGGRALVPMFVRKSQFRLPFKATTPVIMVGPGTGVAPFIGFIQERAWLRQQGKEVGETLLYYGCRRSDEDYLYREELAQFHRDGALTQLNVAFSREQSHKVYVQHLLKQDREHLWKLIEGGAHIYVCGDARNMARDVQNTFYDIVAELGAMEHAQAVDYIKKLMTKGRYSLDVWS
The experiment in a line: Activity at human recombinant CPR assessed as superoxide generation at 100 umol/ml by spectrophotometric assay.

Data set [4] deals with HaCaT. The experiment in a line: Increase in superoxide generation in human HaCaT cells at 5 uM incubated for 18 hrs by DHE-based flow cytometric analysis. The data set is classed as functional, cell-based.
Data set [5] relates to HaCaT. Kind of data set: Increase in superoxide generation in human HaCaT cells at 5 uM incubated for 18 hrs pretreated with 5 umol/L NQO1 inhibitor dicoumarol for 25 mins followed by compound addition by DHE-based flow cytometric analysis. Type of data set: functional, cell-based. A general note: Flow cytometry measures light scatter and fluorescence of single cells or particles in a stream.

The target in data set [6] is NAD(P)H dehydrogenase [quinone] 1 (Homo sapiens) (UniProt P15559). The experiment in a line: Activity at human recombinant NQO1 assessed as superoxide generation at 25 umol/ml by spectrophotometric assay.
Chain of NAD(P)H dehydrogenase [quinone] 1 (Homo sapiens) (P15559 whole entry): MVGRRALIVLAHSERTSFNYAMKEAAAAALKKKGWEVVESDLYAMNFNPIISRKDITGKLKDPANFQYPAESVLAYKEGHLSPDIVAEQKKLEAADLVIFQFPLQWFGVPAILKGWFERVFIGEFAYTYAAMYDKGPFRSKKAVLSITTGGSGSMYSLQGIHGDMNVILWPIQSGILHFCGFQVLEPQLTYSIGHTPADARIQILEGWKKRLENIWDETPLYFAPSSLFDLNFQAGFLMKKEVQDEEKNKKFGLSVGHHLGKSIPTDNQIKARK

The compound `O=C(Oc1ccccc1)c1cc2c(s1)C(=O)c1c(Br)cccc1C2=O` registered an IC50 with HaCaT [1] of 6640 nM.

For the compound `CC(=O)c1cc2c(s1)C(=O)c1ccccc1C2=O`, the Activity in the data set on HaCaT [2] is given as 253 mU/ml.

`O=C(c1ccccc1)c1cc2c(s1)C(=O)c1c(Br)cccc1C2=O`: the Activity in the data set with HaCaT [2] was determined as 121 mU/ml. In the data set on HaCaT [1], this compound registered an IC50 of 13200 nM.

Take `CCOC(=O)c1cc2c(s1)C(=O)c1c(Br)cccc1C2=O`: in the data set on HaCaT [2], the Activity was 121 mU/ml. In the data set on HaCaT [1], half-maximal inhibition (IC50) required 1720 nM.

With `CCC(=O)c1cc2c(s1)C(=O)c1c(Cl)cccc1C2=O`, the Activity in the data set on HaCaT [2] came out at 116 mU/ml. In the data set with HaCaT [1], this compound gave an IC50 of 2750 nM.

For `CCOC(=O)c1cc2c(s1)C(=O)c1c(Cl)cccc1C2=O`, in the data set on HaCaT [2], the Activity came to 97 mU/ml. Also, in the data set on HaCaT [1], half-maximal inhibition (IC50) was put at 1220 nM.

In the data set with HaCaT [1], `O=Cc1cc2c(s1)C(=O)c1c(Br)cccc1C2=O` displayed an IC50 of 3820 nM.

For `O=C1c2ccsc2C(=O)c2c(O)cccc21`, the result in data set [3] was Active. The result in the data set with HaCaT [4] and with HaCaT [5] was Active.

`O=C1c2ccsc2C(=O)c2c(I)cccc21`: the IC50 in the data set on HaCaT [1] is > 30000 nM.

Take `O=C(c1cccnc1)c1cc2c(s1)C(=O)c1c(Cl)cccc1C2=O`: the Activity in the data set on HaCaT [2] was found to be 125 mU/ml. In the data set on HaCaT [1], this compound had an IC50 of 570 nM.

As for `CC1=CC(=O)c2ccccc2C1=O` [MENADIONE], the outcome in data set [3] was Active.

Consider `CC(=O)c1cc2c(s1)C(=O)c1c(Cl)cccc1C2=O`, for which the Activity in the data set on HaCaT [2] is on record as 124 mU/ml; in data set [3], “Active”. For the same compound, the outcome in the data set on HaCaT [4] and in the data set with HaCaT [5] was Active.

For the compound `O=C(c1cccs1)c1cc2c(s1)C(=O)c1c(Br)cccc1C2=O`, in the data set on HaCaT [2], the Activity is listed as 107 mU/ml. In the data set on HaCaT [1], this compound gave an IC50 of 11900 nM.

Turning to `CCc1noc(-c2cc3c(s2)C(=O)c2c(O)cccc2C3=O)n1`, the outcome in data set [3] was Active. Further, the outcome in the data set on HaCaT [4] and in the data set on HaCaT [5] was Active.

Take `O=C(Nc1ccccc1)c1cc2c(s1)C(=O)c1c(Cl)cccc1C2=O`: the Activity with HaCaT [2] is listed as 121 mU/ml. For the same compound, in the data set with HaCaT [1], the IC50 is > 30000 nM.

In the case of `COC(=O)c1cc2c(s1)C(=O)c1c(Br)cccc1C2=O`, the Activity with HaCaT [2] is given as 124 mU/ml. Besides, half-maximal inhibition in the data set on HaCaT [1] (IC50) was put at 2200 nM.

Consider `O=C(c1ccccc1)c1cc2c(s1)C(=O)c1c(Cl)cccc1C2=O`, for which the Activity in the data set on HaCaT [2] was 122 mU/ml. Also, the IC50 in the data set with HaCaT [1] is 1770 nM.

With `CC(=O)c1cc2c(s1)C(=O)c1c(Br)cccc1C2=O`, the Activity in the data set on HaCaT [2] worked out at 116 mU/ml. The compound also returned a half-maximal inhibitory concentration (IC50) in the data set with HaCaT [1] of 1500 nM.

With `O=Cc1cc2c(s1)C(=O)c1c(Cl)cccc1C2=O`, the Activity in the data set with HaCaT [2] turned out to be 107 mU/ml. This compound had a 50% inhibitory concentration (IC50) in the data set with HaCaT [1] of 4700 nM.

Turning to `O=C(Oc1ccccc1)c1cc2c(s1)C(=O)c1c(Cl)cccc1C2=O`, the Activity in the data set on HaCaT [2] is reported as 97 mU/ml. Besides, the IC50 in the data set on HaCaT [1] was found to be 10500 nM.

Regarding `CC(=O)c1cc2c(s1)C(=O)c1c(O)cccc1C2=O`, the Activity with HaCaT [2] was 319 mU/ml; in data set [3], “Active”. In addition, the result in the data set on HaCaT [4] and with HaCaT [5] was Active.

As for `O=C1c2ccsc2C(=O)c2c(Cl)cccc21`, the result in data set [3] was Active. The outcome in data set [6] was inactive. Also, the result in the data set on HaCaT [4] and with HaCaT [5] was Active.

Regarding `CCc1noc(-c2cc3c(s2)C(=O)c2c(Cl)cccc2C3=O)n1`, the Activity with HaCaT [2] is given as 121 mU/ml; in data set [3], “Active”. In addition, 590 nM corresponded to half-maximal inhibition in the data set on HaCaT [1] (IC50). The result in data set [6] was inactive. The outcome with HaCaT [4] and in the data set on HaCaT [5] was Active.

In the case of `CCN(CC)C(=O)c1cc2c(s1)C(=O)c1c(Cl)cccc1C2=O`, the Activity with HaCaT [2] is reported as 112 mU/ml. In the data set with HaCaT [1], this compound registered an IC50 of 720 nM.

As for `O=C(O)c1cc2c(s1)C(=O)c1c(Cl)cccc1C2=O`, in the data set on HaCaT [2], the Activity is reported as 112 mU/ml. Further, the IC50 in the data set on HaCaT [1] was > 30000 nM.

The compound `O=C1c2ccsc2C(=O)c2c1cccc2C(F)(F)F` registered an IC50 in the data set with HaCaT [1] of 4850 nM.

`O=C1c2ccsc2C(=O)c2c(Br)cccc21` registered an IC50 in the data set with HaCaT [1] of 14800 nM.

On to `O=C(c1cccs1)c1cc2c(s1)C(=O)c1c(Cl)cccc1C2=O`, for which, in the data set with HaCaT [2], the Activity worked out at 127 mU/ml. The midpoint of inhibition with HaCaT [1], the IC50, lay at 1540 nM.

`O=C(c1cccnc1)c1cc2c(s1)C(=O)c1c(Br)cccc1C2=O` displayed an IC50 with HaCaT [1] of 8630 nM.

As for `CCNC(=O)c1cc2c(s1)C(=O)c1c(Cl)cccc1C2=O`, in the data set on HaCaT [2], the Activity amounted to 109 mU/ml. For the same compound, the IC50 with HaCaT [1] amounted to 1050 nM.

In the case of `COC(=O)c1cc2c(s1)C(=O)c1c(Cl)cccc1C2=O`, in the data set with HaCaT [2], the Activity was found to be 130 mU/ml. Further, the IC50 with HaCaT [1] was 900 nM.

For `O=C1c2cc(-c3nnn[nH]3)sc2C(=O)c2c(Cl)cccc21`, the Activity in the data set on HaCaT [2] is listed as 95 mU/ml. Besides, in the data set on HaCaT [1], the IC50 is > 30000 nM.

Consider `O=C1c2ccsc2C(=O)c2c(F)cccc21`, for which the IC50 with HaCaT [1] worked out at 8500 nM.

`O=C(O)c1cc2c(s1)C(=O)c1c(Br)cccc1C2=O`: the Activity in the data set with HaCaT [2] amounted to 108 mU/ml. Further, the IC50 with HaCaT [1] is > 30000 nM.

As to `CCC(=O)c1cc2c(s1)C(=O)c1c(Br)cccc1C2=O`, in the data set on HaCaT [2], the Activity is 113 mU/ml. Further, the IC50 in the data set with HaCaT [1] was found to be 2910 nM.

A word on the IC50: it is the concentration at which inhibition is half-maximal.
